Among the test systems are COLO 205 colon; MOLT-4 leukemia; SF-295 CNS; RXF 393 renal; LOX IMVI melanoma; NCI-H522 lung; KM12 colon; MCF7 breast; PC-3 prostate; HOP-92 NSCLC.
Assay in all cases: inhibition of tumour cell growth, NCI panel, 48 h

Values joined by “and” are separate entries in the source; they are usually repeats but may differ in a detail not shown here. Equal values may be shown once.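 Growth conditions: 96-well plates. Treatment: test compound, 48 hours, 5 concentrations. Analysis: linear interpolation between bracketing concentrations; unreached endpoints set to highest concentration. GI50: concentration for 50% inhibition of growth. TGI: concentration producing complete growth inhibition.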

The source of these data is PubChem BioAssay (NCI).

Take `Nc1ccc(-c2nc3ccccc3s2)cc1C(F)(F)F`: the TGI in the assay with COLO 205 colon was determined as 36.7 µM; in the assay on MOLT-4 leukemia, 52.4 µM; in the assay on SF-295 CNS, 32.1 µM; with RXF 393 renal it was 21.9 µM; in the assay on LOX IMVI melanoma, 32.4 µM; with NCI-H522 lung, 31.6 µM. Besides, the TGI came out at 31.2 µM in the assay with KM12 colon, 19.4 µM in the assay on MCF7 breast, 29.1 µM in the assay with PC-3 prostate and 33.2 µM in the assay on HOP-92 NSCLC.
`Cc1ccc(CC[P+](=O)CCc2ccc(C)nc2)cn1`: the TGI with COLO 205 colon, in the assay with MOLT-4 leukemia, with SF-295 CNS, in the assay with RXF 393 renal, with LOX IMVI melanoma and in the assay on NCI-H522 lung was greater than 100 µM in each case. The TGI in the assay on KM12 colon, with MCF7 breast, with PC-3 prostate and in the assay with HOP-92 NSCLC was greater than 100 µM in each case.
For `Nc1nc(Cl)cc(NCC2(CO)CCC(CCc3ccccc3)C2)n1` (configuration not stated), the TGI in the assay with COLO 205 colon was determined as 27.3 µM; in the assay with MOLT-4 leukemia, 11.7 µM; in the assay with SF-295 CNS, 21.8 µM; with RXF 393 renal, 29.9 µM; in the assay with LOX IMVI melanoma it was 26.3 µM; in the assay on NCI-H522 lung, 25.6 µM. For the same compound, the TGI in the assay with KM12 colon was found to be 30.1 µM; with MCF7 breast, 32.7 µM; in the assay on PC-3 prostate, 43.4 µM; in the assay with HOP-92 NSCLC it was 33.4 µM.
Regarding `c1csc(-c2ccc(-c3cccs3)c3nsnc23)c1`, the TGI is 27.1 µM with COLO 205 colon; 30.3 µM with MOLT-4 leukemia; greater than 100 µM with SF-295 CNS; greater than 64.7 µM in the assay with RXF 393 renal; greater than 61.9 µM in the assay on LOX IMVI melanoma; greater than 100 µM in the assay with NCI-H522 lung. The TGI is 22.2 µM in the assay with KM12 colon, greater than 100 µM in the assay on MCF7 breast, greater than 100 µM with PC-3 prostate and greater than 100 µM in the assay with HOP-92 NSCLC.
Turning to `COC(=O)CN1c2nc(C#N)c(C#N)nc2N(CC(=O)OC)c2nc(C#N)c(C#N)nc21`, the TGI was 15.3 µM with COLO 205 colon; greater than 22 µM in the assay on MOLT-4 leukemia; 43.5 µM with SF-295 CNS; 7.09 µM with RXF 393 renal; greater than 20.1 µM in the assay on LOX IMVI melanoma; 3.74 µM in the assay with NCI-H522 lung. Further, the TGI amounted to 27.8 µM in the assay on KM12 colon, 18.4 µM in the assay on MCF7 breast, 18.4 µM with PC-3 prostate and 7.44 µM with HOP-92 NSCLC.
Consider `Cc1cn(-c2cc(C(=O)Nc3cccc(-n4ccc5c(NC(=O)c6ccccc6)nccc54)c3)cc(C(F)(F)F)c2)cn1`, for which the GI50 in the assay on COLO 205 colon was 0.525 µM; in the assay with MOLT-4 leukemia, 0.531 µM; in the assay with SF-295 CNS, 0.306 µM; with RXF 393 renal, 0.202 µM; in the assay on LOX IMVI melanoma it was 0.379 µM; with NCI-H522 lung it was 0.375 µM. The GI50 in the assay on KM12 colon is 0.372 µM; in the assay with MCF7 breast, 0.361 µM; in the assay on PC-3 prostate, 0.393 µM; with HOP-92 NSCLC it was 0.39 µM. In addition, the TGI in the assay on COLO 205 colon turned out to be 1.71 µM; in the assay with MOLT-4 leukemia, 10.6 µM; in the assay on SF-295 CNS, 1.44 µM; with RXF 393 renal it was 0.535 µM; in the assay with LOX IMVI melanoma, 2.07 µM; in the assay with NCI-H522 lung it was 8.21 µM. In addition, the TGI is 1.46 µM in the assay with KM12 colon, 2.39 µM with MCF7 breast, 15.6 µM in the assay with PC-3 prostate and 6.49 µM in the assay with HOP-92 NSCLC.
With `C[C@@H]1S[C@H](c2ccccc2F)N2Cc3ccccc3N=C12`, the TGI with COLO 205 colon is greater than 100 µM; with MOLT-4 leukemia it was 46.7 µM; with SF-295 CNS, greater than 100 µM; with RXF 393 renal, 83.9 µM; with LOX IMVI melanoma, 38.1 µM; with NCI-H522 lung, 51.6 µM. The TGI in the assay on KM12 colon is greater than 100 µM; in the assay with MCF7 breast, greater than 100 µM; in the assay on PC-3 prostate, 97.1 µM; in the assay on HOP-92 NSCLC, 65 µM.
Turning to `ClC(Cl)=C1C(=C(Cl)Cl)C(Cl)(Cl)C1(Cl)Cl`, the TGI in the assay on COLO 205 colon is 10.8 µM; in the assay on MOLT-4 leukemia, 0.715 µM and 2 µM; in the assay with SF-295 CNS, 7.24 µM; in the assay with RXF 393 renal, 3.26 µM; with LOX IMVI melanoma it was 0.579 µM and 1.86 µM; with NCI-H522 lung it was 0.304 µM. For the same compound, the TGI is 18.4 µM with KM12 colon, 19.2 µM with MCF7 breast, 5.08 µM in the assay with PC-3 prostate and 4.5 µM in the assay on HOP-92 NSCLC. For the same compound, the GI50 in the assay on MOLT-4 leukemia was 0.278 µM; in the assay on NCI-H522 lung, 0.287 µM.
Take `O=C(O)C(SC1=NNC2(C(=O)N1)c1ccccc1-c1ccccc12)SC1=NNC2(C(=O)N1)c1ccccc1-c1ccccc12`: the TGI in the assay with COLO 205 colon, with MOLT-4 leukemia, in the assay on SF-295 CNS, in the assay on RXF 393 renal, in the assay with LOX IMVI melanoma and in the assay with NCI-H522 lung was greater than 10 µM throughout. For the same compound, the TGI in the assay with KM12 colon, in the assay with MCF7 breast, with PC-3 prostate and in the assay with HOP-92 NSCLC was greater than 10 µM in each case.
In the case of `C[C@@H](Cl)[C@H]1CCCN(Cc2ccc(Br)cc2)C1`, the TGI in the assay with COLO 205 colon, in the assay on MOLT-4 leukemia, with SF-295 CNS, with RXF 393 renal, with LOX IMVI melanoma and with NCI-H522 lung was greater than 12.5 µM throughout. Moreover, the TGI with KM12 colon, with MCF7 breast, in the assay with PC-3 prostate and with HOP-92 NSCLC was greater than 12.5 µM throughout.
As to `N/C(=N\S(=O)(=O)c1c(C(F)(F)F)cccc1C(F)(F)F)Nc1ccc(Cl)cc1`, the TGI in the assay on COLO 205 colon was 33.1 µM; in the assay with MOLT-4 leukemia, greater than 100 µM; in the assay with SF-295 CNS it was greater than 100 µM; in the assay on RXF 393 renal it was greater than 100 µM; with LOX IMVI melanoma, 48.1 µM; in the assay on NCI-H522 lung, 30.6 µM. Besides, the TGI is greater than 100 µM with KM12 colon, greater than 100 µM in the assay on MCF7 breast, 25.6 µM with PC-3 prostate and 43.6 µM with HOP-92 NSCLC.
`CCOC(CNCCC(=O)OC)OCC`: the TGI in the assay on COLO 205 colon, in the assay on MOLT-4 leukemia, in the assay on SF-295 CNS, with RXF 393 renal, in the assay with LOX IMVI melanoma and with NCI-H522 lung was greater than 10 µM each time. Also, the TGI with KM12 colon, in the assay with MCF7 breast, in the assay with PC-3 prostate and with HOP-92 NSCLC was greater than 10 µM throughout.
As for `NNC1=N/C(=C\c2ccco2)C(Cl)=N1`, the TGI in the assay on COLO 205 colon was greater than 100 µM; with MOLT-4 leukemia, 34.9 µM; with SF-295 CNS, greater than 100 µM; in the assay on RXF 393 renal, greater than 100 µM; in the assay on LOX IMVI melanoma, 70.8 µM; in the assay with NCI-H522 lung, 92.2 µM. Moreover, the TGI in the assay with KM12 colon, with MCF7 breast, with PC-3 prostate and in the assay on HOP-92 NSCLC was greater than 100 µM in each case.
Take `CCOC(=O)C1(C(=O)OCC)COS(=O)OC1`: the TGI was 54.5 µM in the assay with COLO 205 colon; 56.4 µM in the assay on MOLT-4 leukemia; greater than 100 µM with SF-295 CNS; 32.6 µM in the assay with RXF 393 renal; 28.4 µM in the assay with LOX IMVI melanoma; 2.1 µM in the assay with NCI-H522 lung. Further, the TGI is greater than 100 µM with KM12 colon, 36.6 µM in the assay with MCF7 breast, greater than 100 µM in the assay on PC-3 prostate and 28.6 µM in the assay with HOP-92 NSCLC.
`Cc1ccc(OCCn2cc(Nc3ccccc3)c(=O)n(CCOc3ccc(C)cc3)c2=O)cc1`: the TGI with COLO 205 colon, with MOLT-4 leukemia, in the assay on SF-295 CNS, in the assay with RXF 393 renal, in the assay with LOX IMVI melanoma and with NCI-H522 lung was greater than 100 µM in each case. Besides, the TGI in the assay on KM12 colon, with MCF7 breast, in the assay with PC-3 prostate and with HOP-92 NSCLC was greater than 100 µM in each case.
On to `COc1cc(-c2cc(=O)c3cc4c(=O)cc(-c5cc(OC)c(OC)c(OC)c5)oc4cc3o2)cc(OC)c1OC`, for which the TGI in the assay on COLO 205 colon was greater than 100 µM; in the assay on MOLT-4 leukemia, greater than 100 µM; in the assay on SF-295 CNS, 40.6 µM; in the assay on RXF 393 renal, 26.4 µM; in the assay on LOX IMVI melanoma, greater than 100 µM; in the assay on NCI-H522 lung, greater than 85.8 µM. Besides, the TGI is greater than 100 µM with KM12 colon, greater than 100 µM with MCF7 breast, greater than 100 µM with PC-3 prostate and 43.3 µM in the assay with HOP-92 NSCLC.
For `CC(O)CCCOC(c1ccccc1)(c1ccccc1)c1ccccc1` (configuration not stated), the TGI in the assay on COLO 205 colon is 39.3 µM; with MOLT-4 leukemia, greater than 50.9 µM; with SF-295 CNS, 27.4 µM; with RXF 393 renal it was 29.2 µM; in the assay with LOX IMVI melanoma, 30.4 µM; in the assay with NCI-H522 lung it was 26.8 µM. The TGI turned out to be 27.8 µM in the assay on KM12 colon, 28.3 µM in the assay on MCF7 breast, 23.7 µM with PC-3 prostate and 25.5 µM with HOP-92 NSCLC.
Regarding `O=C1NCC(NC(=O)C(F)(F)F)c2c(Br)sc(Br)c21` (configuration not stated), the TGI with COLO 205 colon, in the assay with MOLT-4 leukemia, in the assay on SF-295 CNS, in the assay with RXF 393 renal, in the assay with LOX IMVI melanoma and with NCI-H522 lung was greater than 100 µM throughout. In addition, the TGI with KM12 colon, in the assay on MCF7 breast, with PC-3 prostate and in the assay with HOP-92 NSCLC was greater than 100 µM throughout.
